# Measurements published in patent publication US20190055279A1, “NOVEL POLYPEPTIDES WITH IMPROVED PROTEOLYTIC STABILITY, AND METHODS OF PREPARING AND USING SAME” (TUFTS UNIVERSITY, priority 2015, published 2019).
# Target: DPP4 (Homo sapiens, UniProt P27487)
# Experiment: Sensitivity to DPP4: overnight incubation with recombinant DPP4 or vehicle, then receptor agonist bioassay
# Conditions: overnight incubation with or without DPP4, readout at cognate receptor
# Description: Plotting concentration versus the luciferase activity yielded quantitative parameters for combined binding (potency) and signaling (efficacy) in a single step. […] DPP4 treated peptides: 10 μl of 0.26 mM peptide were incubated with 2 μL DPP4 in buffer ±DMSO for 18 hrs. Control peptides: 10 μl of 0.26 mM peptide was added to buffer ±DMSO. The final DMSO concentration was the same for all peptides and all peptides were diluted to 0.26 mM concentrations for the DPP4 assay.
# Compounds are incubated overnight at 37° C. in the presence of recombinant DPP4 or vehicle (TRIS buffer). The samples are then assessed in GLP-1R agonist assays.
# Compounds were incubated overnight at 37° C. in the presence of recombinant DPP4 or vehicle (TRIS buffer, pH 8.0). The samples were then assessed in GLP1R agonist assays as described elsewhere herein.
# Sequence of DPP4 (P27487 whole entry, species assumed): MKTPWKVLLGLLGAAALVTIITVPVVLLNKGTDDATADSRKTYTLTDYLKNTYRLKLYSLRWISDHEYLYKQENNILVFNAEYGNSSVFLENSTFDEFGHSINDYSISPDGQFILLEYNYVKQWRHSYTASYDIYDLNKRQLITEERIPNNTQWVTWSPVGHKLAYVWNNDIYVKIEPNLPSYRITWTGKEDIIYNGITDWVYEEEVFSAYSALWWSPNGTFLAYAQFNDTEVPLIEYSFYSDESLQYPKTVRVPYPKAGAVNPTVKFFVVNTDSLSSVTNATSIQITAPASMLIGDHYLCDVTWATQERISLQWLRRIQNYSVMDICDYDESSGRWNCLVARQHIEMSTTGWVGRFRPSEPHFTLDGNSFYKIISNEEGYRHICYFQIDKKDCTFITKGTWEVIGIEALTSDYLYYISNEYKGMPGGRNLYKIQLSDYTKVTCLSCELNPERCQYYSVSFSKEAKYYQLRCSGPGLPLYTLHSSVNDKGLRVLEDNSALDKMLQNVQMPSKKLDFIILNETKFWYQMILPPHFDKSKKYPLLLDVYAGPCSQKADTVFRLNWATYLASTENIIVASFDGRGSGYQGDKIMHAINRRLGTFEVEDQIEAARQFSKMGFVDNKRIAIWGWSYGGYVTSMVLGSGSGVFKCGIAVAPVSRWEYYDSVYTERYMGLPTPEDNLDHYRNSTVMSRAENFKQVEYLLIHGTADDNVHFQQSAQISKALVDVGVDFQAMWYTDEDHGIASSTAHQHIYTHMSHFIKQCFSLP
row,SMILES,DPP4 degradation / resistance (in words)
1,"CC[C@H](C)[C@H](NC(=O)[C@H](Cc1ccccc1)NC(=O)[C@H](CCC(=O)O)NC(=O)[C@H](CCCCN)NC(=O)[C@H](C)NC(=O)[C@H](C)NC(=O)[C@H](CCC(N)=O)NC(=O)CNC(=O)[C@H](CCC(=O)O)NC(=O)[C@H](CC(C)C)NC(=O)[C@H](Cc1ccc(O)cc1)NC(=O)[C@H](CO)NC(=O)[C@H](CO)NC(=O)[C@@H](NC(=O)[C@H](CC(=O)O)NC(=O)[C@H](CO)NC(=O)[C@@H](NC(=O)[C@H](Cc1ccccc1)NC(=O)[C@@H](NC(=O)CNC(=O)[C@H](CCC(=O)O)NC(=O)[C@H](C)NC(=O)[C@H](Cc1c[nH]cn1)NCC(C)C)[C@@H](C)O)[C@@H](C)O)C(C)C)C(=O)N[C@@H](C)C(=O)N[C@@H](Cc1c[nH]c2ccccc12)C(=O)N[C@@H](CC(C)C)C(=O)N[C@H](C(=O)N[C@@H](CCCCN)C(=O)NCC(=O)N[C@@H](CCCNC(=N)N)C(N)=O)C(C)C [G-6, isobutyl GLP-1]",virtually complete DPP4 resistance
2,CC[C@H](C)[C@H](NC(=O)[C@H](C)NC(=O)[C@H](CC(=O)O)NC(=O)[C@H](C)NC(=O)[C@H](Cc1ccc(O)cc1)NCC(F)(F)F)C(=O)N[C@@H](Cc1ccccc1)C(=O)N[C@H](C(=O)N[C@@H](CC(N)=O)C(=O)N[C@@H](CO)C(=O)N[C@@H](Cc1ccc(O)cc1)C(=O)N[C@@H](CCCNC(=N)N)C(=O)N[C@@H](CCCCN)C(=O)N[C@H](C(=O)N[C@@H](CC(C)C)C(=O)NCC(=O)N[C@@H](CCC(N)=O)C(=O)N[C@@H](CC(C)C)C(=O)N[C@@H](CO)C(=O)N[C@@H](C)C(=O)N[C@@H](CCCNC(=N)N)C(=O)N[C@@H](CCCCN)C(=O)N[C@@H](CC(C)C)C(=O)N[C@@H](CC(C)C)C(=O)N[C@@H](CCC(N)=O)C(=O)N[C@@H](CC(=O)O)C(=O)N[C@H](C(=O)N[C@@H](CCSC)C(=O)N[C@@H](CO)C(=O)N[C@@H](CCCNC(=N)N)C(N)=O)[C@@H](C)CC)C(C)C)[C@@H](C)O [GH29-4],resistant to enzyme induced potency loss
3,CC[C@H](C)[C@H](NC(=O)[C@H](Cc1ccccc1)NC(=O)[C@H](CCC(=O)O)NC(=O)[C@H](CCCCN)NC(=O)[C@H](C)NC(=O)[C@H](C)NC(=O)[C@H](CCC(N)=O)NC(=O)CNC(=O)[C@H](CCC(=O)O)NC(=O)[C@H](CC(C)C)NC(=O)[C@H](Cc1ccc(O)cc1)NC(=O)[C@H](CO)NC(=O)[C@H](CO)NC(=O)[C@@H](NC(=O)[C@H](CC(=O)O)NC(=O)[C@H](CO)NC(=O)[C@@H](NC(=O)[C@H](Cc1ccccc1)NC(=O)[C@@H](NC(=O)CNC(=O)[C@H](CCC(=O)O)NC(=O)[C@H](C)NC(=O)[C@H](Cc1c[nH]cn1)NC(C)=O)[C@@H](C)O)[C@@H](C)O)C(C)C)C(=O)N[C@@H](C)C(=O)N[C@@H](Cc1c[nH]c2ccccc12)C(=O)N[C@@H](CC(C)C)C(=O)N[C@H](C(=O)N[C@@H](CCCCN)C(=O)NCC(=O)N[C@@H](CCCNC(=N)N)C(N)=O)C(C)C [GLP-1b],stability against DPP4
4,CC[C@H](C)[C@H](NC(=O)[C@H](Cc1ccccc1)NC(=O)[C@H](CCC(=O)O)NC(=O)[C@H](CCCCN)NC(=O)[C@H](C)NC(=O)[C@H](C)NC(=O)[C@H](CCC(N)=O)NC(=O)CNC(=O)[C@H](CCC(=O)O)NC(=O)[C@H](CC(C)C)NC(=O)[C@H](Cc1ccc(O)cc1)NC(=O)[C@H](CO)NC(=O)[C@H](CO)NC(=O)[C@@H](NC(=O)[C@H](CC(=O)O)NC(=O)[C@H](CO)NC(=O)[C@@H](NC(=O)[C@H](Cc1ccccc1)NC(=O)[C@@H](NC(=O)CNC(=O)[C@H](CCC(=O)O)NC(=O)[C@H](C)NC(=O)[C@H](Cc1c[nH]cn1)NCc1ccccc1)[C@@H](C)O)[C@@H](C)O)C(C)C)C(=O)N[C@@H](C)C(=O)N[C@@H](Cc1c[nH]c2ccccc12)C(=O)N[C@@H](CC(C)C)C(=O)N[C@H](C(=O)N[C@@H](CCCCN)C(=O)NCC(=O)N[C@@H](CCCNC(=N)N)C(N)=O)C(C)C [benzyl],virtually complete DPP4 resistance
